Results taken from patent publication US5900488A, “Method for treating mycosis using imidazolylacetonitrile derivatives” (Nihon Nohyaku Co., Ltd., priority 1995, dated 1999).
Values after ≈ are worked out from the molar mass of the structure shown. Like-named read-outs stand apart in the source and are kept apart here.

Legend:
[1] = test system: Trichophyton mentagrophytes; test: In vitro activity against Trichophyton mentagrophytes, MIC by twofold macro-broth dilution (Test Example 1); format: cell-based; details: Trichophyton mentagrophytes, 7 days at 27° C.
Description: (§1) Minimum inhibitory concentrations (MICs) were determined by the twofold macro-broth dilution method with Sabouraud's glucose broth which constituted with 1% bactopeptone and 4% glucose. To each tube containing 9.8 ml of the broth, 0.1 ml of each testing compound dissolved in DMSO and 0.1 ml of a conidial suspension (1×10^6 conidia/ml) were added. The fungal growth was observed after incubation for 7 days at 27° C. The MIC was determined as the lowest drug concentration which prevented a visible fungal growth.

[2] = test system: Trichophyton rubrum; test: In vitro activity against Trichophyton rubrum, MIC by twofold macro-broth dilution (Test Example 1); format: cell-based
Description: as §1

[3] = test system: trichophyton mentagrophytes TIMM 2789; test: Therapeutic efficacy on experimental tinea pedis in guinea pigs (Test Example 2); format: in vivo
Description: Male Hartley guinea pigs (Japan SLC Inc.) weighing 400 to 620 g were used for the infection study. One side of a paper disc (1.5 mm thick×8 mm diameter) was covered with a piece of aluminum foil while the other side was free to carry the inoculum suspension. The disc was immersed with 50 μl of the inoculum suspension (trichophyton mentagrophytes TIMM 2789, 1×10^8 conidia/ml), and was then fixed on the planta pedis of animal feet with an adhesive elastic tape. The disc was removed on the seventh day postinfection. Each agent dissolved in PEG 400 (0.1 ml/locus) was topically applied to the whole soles of guinea pigs once a day for 3 consecutive days, starting on the 10th day postinfection. Five days after the last treatment, the skin tissue from each planta pedis and the corresponding tarsus of all animals was cut into small blocks (about 2×2 mm). Ten skin blocks obtained from each part of the foot were implanted on a Sabouraud's glucose agar plate containing antibiotics, and were cultured at 27° C. for 14 days. The skin blocks yielding fungal growth were regarded as culture-positive, and the foot (planta pedis plus tarsus) with more than one culture-positive skin block was considered fungus-positive. In addition, the intensity of infection was assessed by the scores based on the number of culture-positive skin blocks. Namely, +10, +9, +8, +7, +6, +5, +4, +3, +2, +1 or 0 was given as the score according to the corresponding number of culture-positive skin blocks out of ten skin blocks studied. Statistical analyses for the rate of fungus-positive feet and the average intensity of infection were assessed by Fisher's exact probably test and Mann-Whitney's U-test, respectively.

[4] = test system: Candida albicans; test: In vitro antifungal activity against Candida albicans, MIC by twofold micro-broth dilution (Test Example 3); format: cell-based; details: 48 hours at 35° C., pH 7.0, read-out: MIC
Description: MICs were determined by the twofold micro-broth dilution method with RPMI 1640 buffered with morphorino-propanesulfonic acid to a final molarity of 0.165M (pH 7.0). One hundred μl of a yeast cell suspension (1 to 5×10^3 cells/ml) and 100 μl of the compound-containing medium were pipetted into each well flat-bottomed microtiter plates. After incubation for 48 hours at 35° C., the turbidity of each well was measured at 630 nm.

[5] = test system: Aspergillus fumigatus; test: In vitro antifungal activity against Aspergillus fumigatus, MIC by twofold agar dilution (Test Example 4); format: cell-based
Description: MICs were determined by the twofold agar dilution method with casitone agar which constituted with 0.9% bactocasitone, 1% bacto-yeast extract, 2% glucose, 0.1% KH2 PO4, 0.1% Na2 HPO4, 1% Na3 C6 H5 O7 and 1.6% agar. A loopful of each inoculum (1×10^6 conidia/ml) was streaked onto the agar plate containing a compound, and a fungal growth was observed after incubation for 48 hours at 35° C. The MIC was determined as the lowest drug concentration which prevented a visible fungal growth.

[6] = 1% in PEG 400, topical once a day for 3 days, p < 0.01 vs untreated and PEG 400, Compound (A) also p < 0.05 vs 1% Racemic Compound (A)
[7] = 1% in PEG 400, topical once a day for 3 days, p < 0.01 vs untreated and PEG 400 control

## N#C/C(=C1/SCC(c2ccccc2Cl)S1)n1ccnc1 (racemic) [Racemic Compound (A), (±)-(E)-[4-(2-chlorophenyl)-1,3-dithiolan-2-ylidene]-1-imidazolylacetonitrile]
[1]; IFO5466, 168 h, strain IFO 5466
  MIC: 0.04 µg/mL (≈ 0.125 µM)
[1]; IFO5809, 168 h, strain IFO 5809
  MIC: 0.01 µg/mL (≈ 0.0313 µM)
[1]; IFO5810, 168 h, strain IFO 5810
  MIC: 0.01 µg/mL (≈ 0.0313 µM)
[1]; IFO5811, 168 h, strain IFO 5811
  MIC: 0.04 µg/mL (≈ 0.125 µM)
[1]; IFO5929, 168 h, strain IFO 5929
  MIC: 0.02 µg/mL (≈ 0.0625 µM)
[1]; TIMM1189, 168 h, strain TIMM 1189
  MIC: 0.04 µg/mL (≈ 0.125 µM)
[1]; TIMM1814, 168 h, strain TIMM 1814
  MIC: 0.04 µg/mL (≈ 0.125 µM)
[1]; TIMM1815, 168 h, strain TIMM 1815
  MIC: 0.04 µg/mL (≈ 0.125 µM)
[1]; TIMM1817, 168 h, strain TIMM 1817
  MIC: 0.04 µg/mL (≈ 0.125 µM)
[1]; TIMM2789, 168 h, strain TIMM 2789
  MIC: 0.01 µg/mL (≈ 0.0313 µM)
[2]; IFO5467, 168 h, strain IFO 5467, 7 days at 27° C.
  MIC: 0.005 µg/mL (≈ 0.0156 µM)
[2]; IFO5807, 168 h, strain IFO 5807, 7 days at 27° C.
  MIC: 0.01 µg/mL (≈ 0.0313 µM)
[2]; IFO5808, 168 h, strain IFO 5808, 7 days at 27° C.
  MIC: 0.01 µg/mL (≈ 0.0313 µM)
[2]; IFO6203, 168 h, strain IFO 6203, 7 days at 27° C.
  MIC: 0.005 µg/mL (≈ 0.0156 µM)
[2]; IFO6204, 168 h, strain IFO 6204, 7 days at 27° C.
  MIC: 0.01 µg/mL (≈ 0.0313 µM)
[2]; IFO9185, 168 h, strain IFO 9185, 7 days at 27° C.
  MIC: 0.0025 µg/mL (≈ 0.00782 µM)
[2]; TIMM1822, 168 h, strain TIMM 1822, 7 days at 27° C.
  MIC: 0.005 µg/mL (≈ 0.0156 µM)
[2]; TIMM1823, 168 h, strain TIMM 1823, 7 days at 27° C.
  MIC: 0.01 µg/mL (≈ 0.0313 µM)
[2]; TIMM1824, 168 h, strain TIMM 1824, 7 days at 27° C.
  MIC: 0.005 µg/mL (≈ 0.0156 µM)
[2]; TIMM1830, 168 h, strain TIMM 1830, 7 days at 27° C.
  MIC: 0.0013 µg/mL (≈ 0.00406 µM)
[3]; [6]
  Fungus-positive rate (%): 40%
  Fungus-positive rate: The number of positive feet/The total number of feet: 4/10 and four feet among the inoculated ten feet
[3]; [7]
  Average intensity of infection, planta pedis (score 0 to +10): +0.6
  Average intensity of infection, tarsus (score 0 to +10): +0.2
[3]; 1% treated group
  curative effect (in words): significant curative effect
[4]; IFO0197, strain IFO 0197, 80% inhibition
  MIC: 0.25 µg/mL (≈ 0.782 µM)
[4]; IFO0579, strain IFO 0579, 80% inhibition
  MIC: 0.0625 µg/mL (≈ 0.195 µM)
[4]; IFO1269, strain IFO 1269, 80% inhibition
  MIC: 0.125 µg/mL (≈ 0.391 µM)
[4]; IFO1270, strain IFO 1270, 80% inhibition
  MIC: 1 µg/mL (≈ 3.13 µM)
[4]; IFO1385, strain IFO 1385, 80% inhibition
  MIC: 0.25 µg/mL (≈ 0.782 µM)
[4]; IFO1386, strain IFO 1386, 80% inhibition
  MIC: 0.25 µg/mL (≈ 0.782 µM)
[4]; TIMM3163, strain TIMM 3163, 80% inhibition
  MIC: 16 µg/mL (≈ 50 µM)
[4]; TIMM3164, strain TIMM 3164, 80% inhibition
  MIC: 0.5 µg/mL (≈ 1.56 µM)
[4]; TIMM3165, strain TIMM 3165, 80% inhibition
  MIC: 4 µg/mL (≈ 12.5 µM)
[4]; TIMM3166, strain TIMM 3166, 80% inhibition
  MIC: 2 µg/mL (≈ 6.25 µM)
[5]; TIMM0063, strain TIMM 0063, 48 hours at 35° C., read-out: MIC
  MIC: 0.0013 µg/mL (≈ 0.00406 µM)
[5]; TIMM0078, strain TIMM 0078, 48 hours at 35° C., read-out: MIC
  MIC: 0.0013 µg/mL (≈ 0.00406 µM)
[5]; TIMM1728, strain TIMM 1728, 48 hours at 35° C., read-out: MIC
  MIC: 0.0013 µg/mL (≈ 0.00406 µM)
[5]; TIMM1767, strain TIMM 1767, 48 hours at 35° C., read-out: MIC
  MIC: 0.0025 µg/mL (≈ 0.00782 µM)

## CCC(C)n1ncn(-c2ccc(N3CCN(c4ccc(OC[C@H]5CO[C@](Cn6cncn6)(c6ccc(Cl)cc6Cl)O5)cc4)CC3)cc2)c1=O (relative stereo) [ITZ, (±)1-sec-Butyl-4-[p[4[p[[2R*,4S*2-(2,4-dichlorophenyl)-2-(1H-1,2,4-trizol-1-ylmethyl)-1,3-dioxolan-4-yl]methoxy]phenyl1-piperazinyl]phenyl.DELTA^21,2,4-triazolin-5-one]
[5]; TIMM0063, 48 h
  MIC: 0.04 µg/mL (≈ 0.0567 µM)
[5]; TIMM0078, 48 h
  MIC: 0.04 µg/mL (≈ 0.0567 µM)
[5]; TIMM1728, 48 h
  MIC: 0.08 µg/mL (≈ 0.113 µM)
[5]; TIMM1767, 48 h
  MIC: 0.08 µg/mL (≈ 0.113 µM)
